Source: ChEMBL document CHEMBL4699540, “Discovery and structure activity relationships of 7-benzyl triazolopyridines as stable, selective, and reversible inhibitors of myeloperoxidase” (Bioorg Med Chem, 2020)

Legend:
Myeloperoxidase [1] = biological target: T1, Myeloperoxidase (Homo sapiens, UniProt P05164); test: Inhibition of recombinant human MPO incubated for 10 mins in presence of 240 mM NaCl and 10 uM H2O2 by aminophenyl fluorescein based assay
T1 sequence (P05164 whole entry): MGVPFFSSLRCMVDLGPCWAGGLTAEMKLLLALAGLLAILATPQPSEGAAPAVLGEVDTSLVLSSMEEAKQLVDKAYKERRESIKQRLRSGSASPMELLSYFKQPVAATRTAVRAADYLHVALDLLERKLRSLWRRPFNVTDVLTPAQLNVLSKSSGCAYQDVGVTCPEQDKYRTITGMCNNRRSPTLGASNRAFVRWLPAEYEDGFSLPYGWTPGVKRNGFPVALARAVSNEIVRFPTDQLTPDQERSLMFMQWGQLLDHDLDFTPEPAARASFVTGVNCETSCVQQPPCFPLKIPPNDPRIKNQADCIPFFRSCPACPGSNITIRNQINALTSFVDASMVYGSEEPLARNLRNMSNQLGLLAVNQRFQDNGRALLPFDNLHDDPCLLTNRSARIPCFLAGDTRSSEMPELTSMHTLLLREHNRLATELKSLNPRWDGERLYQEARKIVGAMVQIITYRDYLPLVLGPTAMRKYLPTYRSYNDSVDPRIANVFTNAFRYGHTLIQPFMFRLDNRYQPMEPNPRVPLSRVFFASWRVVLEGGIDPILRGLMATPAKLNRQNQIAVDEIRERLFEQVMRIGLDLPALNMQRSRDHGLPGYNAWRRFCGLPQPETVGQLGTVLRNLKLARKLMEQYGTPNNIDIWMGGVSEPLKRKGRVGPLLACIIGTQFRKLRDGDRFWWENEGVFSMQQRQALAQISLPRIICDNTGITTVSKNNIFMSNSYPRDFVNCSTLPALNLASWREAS

Myeloperoxidase [2] = biological target: T1, Myeloperoxidase; test: Inhibition of recombinant human MPO incubated for 10 mins by amplex red dye based assay
[3] = Metabolic stability in human liver microsomes assessed as compound remaining; type: ADME, Microsome
[4] = Metabolic stability in mouse liver microsomes assessed as compound remaining; type: ADME, Microsome
[5] = Permeability of compound at pH 7.4 by PAMPA assay; type: ADME; settings: read-out: permeability
Cytochrome P450 3A4 = Cytochrome P450 3A4 (Homo sapiens, UniProt P08684); test: Inhibition of CYP3A4 (unknown origin); type: ADME
Sequence of Cytochrome P450 3A4 (P08684 whole entry): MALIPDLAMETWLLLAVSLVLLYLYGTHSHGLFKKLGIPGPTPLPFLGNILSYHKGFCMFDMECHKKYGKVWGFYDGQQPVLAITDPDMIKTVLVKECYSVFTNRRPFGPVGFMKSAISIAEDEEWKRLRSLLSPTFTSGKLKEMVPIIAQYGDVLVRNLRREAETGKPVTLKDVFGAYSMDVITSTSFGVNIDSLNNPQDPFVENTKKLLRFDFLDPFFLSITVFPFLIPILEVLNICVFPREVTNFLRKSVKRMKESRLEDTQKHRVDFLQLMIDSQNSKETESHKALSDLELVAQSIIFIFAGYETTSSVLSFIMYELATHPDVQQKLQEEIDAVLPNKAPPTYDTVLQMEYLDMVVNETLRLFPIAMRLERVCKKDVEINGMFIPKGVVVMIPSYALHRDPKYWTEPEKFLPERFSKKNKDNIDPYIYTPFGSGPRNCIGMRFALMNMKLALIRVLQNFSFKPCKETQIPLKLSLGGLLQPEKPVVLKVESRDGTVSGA

[6] = biological target: T2, Methylated-DNA--protein-cysteine methyltransferase (Homo sapiens, UniProt P16455); test: Inhibition of human MGMT using 06-benzylguanine as substrate incubated for 30 mins by LC/MS analysis; settings: 0.5 h
T2 sequence (P16455 whole entry): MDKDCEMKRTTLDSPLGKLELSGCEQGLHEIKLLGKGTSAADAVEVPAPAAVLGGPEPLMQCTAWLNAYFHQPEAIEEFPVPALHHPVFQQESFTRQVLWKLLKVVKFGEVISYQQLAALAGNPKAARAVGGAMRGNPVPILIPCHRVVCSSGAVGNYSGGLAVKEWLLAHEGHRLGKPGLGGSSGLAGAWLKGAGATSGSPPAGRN

[7] = Stability of compound at pH 1 assessed as half life; type: physicochemical; settings: buffer
[8] = Dissociation constant, pKa of the compound; type: physicochemical
Thyroid peroxidase = biological target: T3, Thyroid peroxidase (Homo sapiens, UniProt P07202); test: Inhibition of TPO (unknown origin) using 3-iodo tyrosine as substrate incubated for 10 mins
T3 sequence (P07202 whole entry): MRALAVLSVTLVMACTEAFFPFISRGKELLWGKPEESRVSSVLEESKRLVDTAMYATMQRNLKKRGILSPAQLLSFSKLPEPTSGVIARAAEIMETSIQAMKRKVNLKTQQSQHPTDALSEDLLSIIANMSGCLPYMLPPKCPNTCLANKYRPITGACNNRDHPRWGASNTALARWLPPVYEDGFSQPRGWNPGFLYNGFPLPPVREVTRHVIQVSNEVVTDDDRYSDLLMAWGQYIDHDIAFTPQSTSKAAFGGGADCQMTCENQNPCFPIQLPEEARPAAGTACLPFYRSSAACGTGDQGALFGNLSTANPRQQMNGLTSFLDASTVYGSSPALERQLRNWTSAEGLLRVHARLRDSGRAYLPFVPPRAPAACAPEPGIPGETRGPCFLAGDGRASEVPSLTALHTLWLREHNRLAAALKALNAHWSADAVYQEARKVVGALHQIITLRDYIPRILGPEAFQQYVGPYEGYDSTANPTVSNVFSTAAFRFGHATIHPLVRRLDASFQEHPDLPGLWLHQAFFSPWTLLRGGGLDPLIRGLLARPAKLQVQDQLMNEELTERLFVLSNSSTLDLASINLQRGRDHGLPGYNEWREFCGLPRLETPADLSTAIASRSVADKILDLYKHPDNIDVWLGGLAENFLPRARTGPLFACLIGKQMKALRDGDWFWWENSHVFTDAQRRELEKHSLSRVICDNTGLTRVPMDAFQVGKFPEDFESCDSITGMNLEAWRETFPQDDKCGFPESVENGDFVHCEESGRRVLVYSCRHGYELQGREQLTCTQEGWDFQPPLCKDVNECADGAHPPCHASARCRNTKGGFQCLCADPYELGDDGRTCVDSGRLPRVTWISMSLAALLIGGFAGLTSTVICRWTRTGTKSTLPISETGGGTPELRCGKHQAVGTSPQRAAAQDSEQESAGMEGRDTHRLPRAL

SMILES | IC50 (Myeloperoxidase [1]) | IC50 (Myeloperoxidase [2]) | Stabilty [3] | Stabilty [4] | Papp [5] | further results
Nc1cc(Cc2cccc(C(F)(F)F)c2)c2nn[nH]c2n1 | 0.683 µM | 1.43 µM | – | – | – | –
Nc1cc(Cc2ccc(Cl)cc2)c2nn[nH]c2n1 | 1.7 µM | 9.3 µM | – | – | – | –
Nc1cc(Cc2ccccc2F)c2nn[nH]c2n1 | 0.032 µM | 0.046 µM | – | – | – | –
Nc1cc(Cc2ccc3ccccc3c2)c2nn[nH]c2n1 | 0.057 µM | 0.188 µM | – | – | – | –
Nc1cc(Cc2cccc(Cl)c2)c2nn[nH]c2n1 | 0.016 µM | 0.032 µM | – | – | – | –
Nc1cc([C@H](CCN[C@H]2CC[C@H](c3ccccc3)CC2)c2ccccc2)c2nn[nH]c2n1 | – | – | 80% | 79% | – | –
Nc1cc([C@H](CCCc2ccccc2)c2ccccc2)c2nn[nH]c2n1 | – | – | 31% | 1% | 125 ×10⁻⁶ cm/s | IC50 (Cytochrome P450 3A4): 1.8 µM
Nc1nc(Cc2ccccc2)c2nn[nH]c2n1 | 0.11 µM | 0.428 µM | – | – | – | inhibition (INH) [6]: Not Active; half-life [7]: 16 h; pKa [8]: 6.3
Nc1cc([C@H](Cc2ccccc2)c2ccccc2)c2nn[nH]c2n1 | – | – | 84% | 53% | 64.8 ×10⁻⁶ cm/s | IC50 (Cytochrome P450 3A4): 3.4 µM
Nc1cc([C@H](CCN[C@@H]2CC[C@@H](c3ccccc3)OC2)c2ccccc2)c2nn[nH]c2n1 | – | – | – | – | 3.7 ×10⁻⁶ cm/s | –
Nc1cc([C@H](CCN(CCF)C23CCC(c4ccccc4)(CC2)CC3)c2ccccc2)c2nn[nH]c2n1 | – | – | – | – | 21.7 ×10⁻⁶ cm/s | –
Nc1nc(NCc2ccccc2)c2nn[nH]c2n1 | > 40 µM | > 40 µM | – | – | – | pKa [8]: 7.8
Nc1cc([C@H](CCNCc2ccccc2C(F)(F)F)c2ccccc2)c2nn[nH]c2n1 | – | – | 2% | 3% | 23.7 ×10⁻⁶ cm/s | –
Nc1cc([C@H](CCN[C@H]2C[C@@H](c3ccccc3)c3ccccc32)c2ccccc2)c2nn[nH]c2n1 | – | – | 35% | 28% | – | –
Nc1cc(Cc2cccc(-c3ccccc3)c2)c2nn[nH]c2n1 | 0.127 µM | 0.077 µM | – | – | – | –
Nc1cc(C(CCNC23CCC(c4ccccc4)(CC2)OC3)c2ccccc2)c2nn[nH]c2n1 (centres undefined) | – | – | – | – | 10.4 ×10⁻⁶ cm/s | –
Nc1cc([C@H](CCNCc2ccccc2)c2ccccc2)c2nn[nH]c2n1 | – | – | 88% | 85% | 4.3 ×10⁻⁶ cm/s | IC50 (Cytochrome P450 3A4): 12 µM; IC50 (Thyroid peroxidase): > 50 µM
Nc1cc(OCc2ccccc2)c2nn[nH]c2n1 | – | – | – | – | – | inhibition (INH) [6]: Active; half-life [7]: > 100 h
Nc1cc([C@H](CCN[C@H]2CCc3ccccc32)c2ccccc2)c2nn[nH]c2n1 | – | – | 65% | 51% | 6.5 ×10⁻⁶ cm/s | –
Nc1nc(CCc2ccccc2)c2nn[nH]c2n1 | 7.45 µM | 9.84 µM | – | – | – | –
Nc1cc([C@H](CCCN2CCC(c3ccccc3)CC2)c2ccccc2)c2nn[nH]c2n1 | – | – | – | – | 1.3 ×10⁻⁶ cm/s | –
Nc1cc([C@H](CCNC23CCC(c4ccccc4)(CC2)CC3)c2ccccc2)c2nn[nH]c2n1 | – | – | 91% | 85% | 1.7 ×10⁻⁶ cm/s | –
Nc1cc([C@H](CCN[C@@H]2CC[C@@H](c3ccccc3)C2)c2ccccc2)c2nn[nH]c2n1 | – | – | 73% | 45% | 2.4 ×10⁻⁶ cm/s | –
CN(Cc1ccccc1)c1nc(N)nc2[nH]nnc12 | > 40 µM | > 40 µM | – | – | – | –
Nc1cc([C@H](CCOCc2ccccc2)c2ccccc2)c2nn[nH]c2n1 | – | – | 2% | 1% | 73 ×10⁻⁶ cm/s | IC50 (Cytochrome P450 3A4): 2.6 µM; IC50 (Thyroid peroxidase): 6.3 µM
COC(=O)c1cccc(Cc2cc(N)nc3[nH]nnc23)c1 | 0.029 µM | 0.017 µM | – | – | – | –
CN(CC[C@H](c1ccccc1)c1cc(N)nc2[nH]nnc12)C12CCC(c3ccccc3)(CC1)CC2 | – | – | – | – | 0.1 ×10⁻⁶ cm/s | –
Nc1cc([C@H](CCN[C@@H]2CC[C@@H](c3ccccc3)c3ccccc32)c2ccccc2)c2nn[nH]c2n1 | – | – | 9% | 10% | – | –
